For one test, the target named is T1, human FOXP3 (FOXP3-6His) (Homo sapiens, UniProt Q9BZS1).
T1 construct: 6xHis (C); made in house; host or cells: E. coli BL21 (DE3)
T1 sequence (Q9BZS1 1-431): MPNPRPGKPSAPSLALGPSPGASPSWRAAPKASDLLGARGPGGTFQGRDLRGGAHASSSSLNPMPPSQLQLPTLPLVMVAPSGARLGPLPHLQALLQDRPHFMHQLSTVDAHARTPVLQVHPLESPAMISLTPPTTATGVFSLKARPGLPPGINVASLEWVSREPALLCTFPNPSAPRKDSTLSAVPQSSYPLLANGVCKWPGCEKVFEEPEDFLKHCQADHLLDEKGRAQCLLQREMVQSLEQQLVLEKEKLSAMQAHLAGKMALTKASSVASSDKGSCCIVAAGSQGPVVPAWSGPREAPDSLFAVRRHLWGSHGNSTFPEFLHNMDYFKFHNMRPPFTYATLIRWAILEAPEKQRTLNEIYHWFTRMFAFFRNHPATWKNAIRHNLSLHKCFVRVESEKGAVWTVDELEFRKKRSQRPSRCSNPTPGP
Kind of test: Peptide binding to FOXP3 by surface plasmon resonance (SPR). The following applies: peptides 1-20 μM; ratio to p60 (SEQ ID NO: 1). In short, it runs like this:
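C-terminally 6His-tagged human FOXP3, expressed in E. coli BL21(DE3) and Ni-affinity purified, was amine-coupled to a GLM chip (ProteOn XPR36). Peptides at 1–20 μM injected in triplicate in PBS, 0.005% Tween 20, pH 7.4, at 30 μl/min, with interspot reference. Binding given as ratio to reference peptide p60.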
(In SPR one partner is held on a chip, and binding of the other changes the refractive index at the surface.)

Test [1] deals with T2, FOXP3/Runx1 heterodimerization (Homo sapiens, UniProt Q9BZS1).
T2 construct: made in house; host or cells: E. coli BL21 (DE3)
T2 sequence (Q9BZS1 1-431): T1 sequence (Q9BZS1 1-431)
Kind of test: FOXP3/Runx1 heterodimerization inhibition (Alphascreen). Type of test: biochemical. The following applies: for inhibition at 2.5 µM: read-out: Foxp3-Runx1 Inhibition % inhibition (2.5 μM). The text has this:
(§1) Plasmid pET20b FOXP3-His was generated to produce the human FOXP3 tagged with 6 histidines at the C terminus of the protein. Briefly, plasmid pDEST15-FOXP3 (provided by Dr. Casal, Madrid, Spain) was used as template to amplify FOXP3 by PCR using the primers Upper FOXP3 Ndel catatgcccaaccccaggc (SEQ ID NO: 55) and Lower FOXP3 […] (SEQ ID NO: 56). The resulting fragment was subcloned in pET20b at Ndel and NotI sites. pET45b His-Runx1 was obtained by PCR of activated human CD4 T cells obtained from healthy volunteers (after the signature of an informed consent) using the primers Upper Runx1 atgcgtatccccgtagatg (SEQ ID NO: 57) and Lower Runx1 […] (SEQ ID NO: 58) and the fragment was cloned in pcDNA3.1. Then, pET45b and pcDNA3.1-Runx1 were digested with BamHI and NotI and ligated to obtain pET45b-Runx1. Plasmids were used to transform BL21 cells (DE3; Novagen, Schwalbach, Germany) for the expression of the recombinant protein. The transformed BL21 cells were grown in LB medium at 37° C. (1 liter of final culture medium) (with ampicilin 0.1 mg/ml). Once the OD of the culture was between 0.5 and 1.0, IPTG (0.4 mM, final concentration) was added. Bacteria were then cultured overnight in agitation and centrifuged for 10 min at 8000 rpm. Cell pellet was then resuspended in 4 ml Tris-HCl 0.1 M and frozen at −80° C. Cell pellet was then thawed and incubated with lisozyme (25 KU) and a protease inhibitor cocktail for 15 min at 30° C. before cell lysis induced with a French-press. The resultant pool was then centrifuged during 20 min at 11.000 rpm). The recombinant protein was purified from the soluble fraction of French-press cell extracts by affinity chromatography (Histrap, Pharmacia) following manufacturer's instructions and using an FPLC platform (AKTA, Pharmacia). Plasmid pDEST15-FOXP3 encoding the fusion protein GST-FOXP3 (GST fused to the isoform A from human FOXP3 gene), was transformed into BL21 cells for the expression of the recombinant protein. GST-FOXP3 protein was purified from the soluble fraction of cell extracts obtained, as described above, by affinity chromatography (GSTrap; Amersham, Piscataway, N.J.) using a fast protein liquid chromatography platform (AKTA; Amersham) following manufacturer's instructions. The eluted proteins were desalted using Hitrap desalting columns (Pharmacia) and analyzed by SDS-PAGE using Coomassie blue (Bio-Safe Coomassie reagent; Bio-Rad, Hercules, Calif.) and by Western blot.
(§2) It has been described that dimerization of FOXP3 is required for its function as a transcriptional regulator. Moreover, interaction between FOXP3 and the transcription factor Runx1, is crucially required for normal hematopoiesis including thymic T-cell development, but also for Treg suppressor activity (Reviewed in Lozano et al, Front Oncol. 2013, 3:294). Both activities are mediated by the intermediate region of Foxp3, which is the area of interaction between P60 and Foxp3. Thus, we studied the effect of P60 and their mutants on the FOXP3/Runx1 heterodimerization, as well as FOXP3/FOXP3 homodimerization by Alphascreen technology according to the manufacturer's instructions (Perkin Elmer, Benelux). AlphaScreen™ is a bead-based technology that is designed to measure the proximity of donor and acceptor beads conjugated to biomolecules of interest.
To measure Foxp3-Runx1 interactions, Foxp3-GST and […] proteins were used.
Recombinant Runx1 expressed in E. Coli with a hexa-histidine tag (obtained as disclosed in section (1) above) was captured by nickel chelate acceptor beads following manufacturer's instructions, whereas the recombinant FOXP3 expressed with a GST tag was captured by glutathione donor beads (Perkin Elmer) following manufacturer's instructions. His-tagged Runx1 (46 nM final concentration) was incubated with 100 nM GST-FOXP3 and the peptides to be tested (added at different concentrations from 1 to 100 μM) for 1 h at room temperature. […]

The target in test [2] is T3, FOXP3/FOXP3 homodimerization (Homo sapiens, UniProt Q9BZS1).
T3 construct: made in house; host or cells: E. coli BL21 (DE3)
T3 sequence (Q9BZS1 1-431): T1 sequence (Q9BZS1 1-431)
Nature of the test: FOXP3/FOXP3 homodimerization inhibition (Alphascreen). The format is biochemical.
Text: as §1, §2
To measure FOXP3/FOXP3 homodimerization, recombinant Foxp3 was expressed with a Histine tag as disclosed in section (1) above, and captured by Nickel chelate Acceptor beads (Cat. AL108 Perkin Elmer) following manufacturer's instructions. The other version of recombinant FOXP3, expressing a GST tag (prepared as disclosed in section (1) above), was captured by Glutathione Donor beads (Perkin Elmer Cat. 6765300), following manufacturer's instructions. When the two proteins interacted together, the Donor and Acceptor beads come into proximity. Excitation of the Donor beads results in emission of light from the Acceptor beads. […]
In general terms: Bead proximity is the source of the signal in Alpha formats.

Where a SMILES comes first, the peptide text is derived from it. [ ]: non-standard residue; d: D form.

For the compound `CSCC[C@H](NC(=O)[C@H](C)NC(=O)[C@H](Cc1ccccc1)NC(=O)[C@H](Cc1ccccc1)NC(=O)[C@@H]1CCCN1C(=O)[C@H](Cc1c[nH]c2ccccc12)NC(=O)[C@H](CCSC)NC(=O)[C@H](CCCCN)NC(=O)[C@H](CCCNC(=N)N)NC(=O)[C@H](Cc1ccccc1)NC(=O)[C@H](CO)NC(=O)[C@H](CCC(N)=O)NC(=O)[C@H](Cc1ccccc1)NC(=O)[C@@H](CC(=O)O)NC(=O)[C@@H](N)CCCNC(=N)N)C(=O)O` [compound 3] (H-R[dD]FQSFRKMWPFFAM-OH), the “Binding to Foxp3 Ratio binding Peptide/p60 (fold change)” value at human FOXP3 (FOXP3-6His) is given as 2.8 fold change.
What is called inhibition is the drop in the measured response relative to a control, in per cent. `CSCC[C@H](NC(=O)[C@H](C)NC(=O)[C@H](Cc1ccccc1)NC(=O)[C@H](Cc1ccccc1)NC(=O)[C@@H]1CCCN1C(=O)[C@H](Cc1c[nH]c2ccccc12)NC(=O)[C@H](CCSC)NC(=O)[C@H](CCCCN)NC(=O)[C@H](CCCNC(=N)N)NC(=O)[C@H](Cc1ccccc1)NC(=O)[C@H](CO)NC(=O)[C@H](CCC(N)=O)NC(=O)[C@H](Cc1ccccc1)NC(=O)[C@H](C)NC(=O)[C@H](N)CCCNC(=N)N)C(=O)O` [compound 46] (H-[dR]AFQSFRKMWPFFAM-OH; N-terminus and C-terminus assumed): on human FOXP3 (FOXP3-6His), the “Binding to Foxp3 Ratio binding Peptide/p60 (fold change)” value was 2.7 fold change. Besides, the inhibition at 2.5 µM in test [1] was determined as 95%. Further, the inhibition at 20 µM in test [2] (read-out: Dimerization inhibition % inhibition (20 μM)) turned out to be 90%.
With `CSCC[C@H](NC(=O)[C@H](CCCCN)NC(=O)[C@H](CCCNC(=N)N)NC(=O)[C@H](Cc1ccccc1)NC(=O)[C@H](CO)NC(=O)[C@H](CCC(N)=O)NC(=O)[C@H](Cc1ccccc1)NC(=O)[C@H](C)NC(=O)[C@@H](N)CCCNC(=N)N)C(=O)N[C@@H](Cc1c[nH]c2ccccc12)C(=O)N1CCC[C@H]1C(=O)N[C@@H](Cc1ccccc1)C(=O)N[C@@H](Cc1ccccc1)C(=O)N[C@@H](C)C(=O)N[C@H](CCSC)C(=O)O` [compound 47] (H-RAFQSFRKMWPFFA[dM]-OH; N-terminus and C-terminus assumed), the “Binding to Foxp3 Ratio binding Peptide/p60 (fold change)” value at human FOXP3 (FOXP3-6His) was found to be 1.7 fold change. Also, in test [1], the inhibition at 2.5 µM stood at 75%.
In the case of `CSCC[C@H](NC(=O)[C@H](CCCCN)NC(=O)[C@H](CCCNC(=N)N)NC(=O)[C@H](Cc1ccccc1)NC(=O)[C@H](CO)NC(=O)[C@H](CCC(N)=O)NC(=O)[C@H](Cc1ccccc1)NC(=O)[C@H](C)NC(=O)[C@H](N)CCCNC(=N)N)C(=O)N[C@@H](Cc1c[nH]c2ccccc12)C(=O)N1CCC[C@H]1C(=O)N[C@@H](Cc1ccccc1)C(=O)N[C@@H](Cc1ccccc1)C(=O)N[C@@H](C)C(=O)N[C@H](CCSC)C(=O)O` [compound 48] (H-[dR]AFQSFRKMWPFFA[dM]-OH; N-terminus and C-terminus assumed), the “Binding to Foxp3 Ratio binding Peptide/p60 (fold change)” value on human FOXP3 (FOXP3-6His) stood at 2.5 fold change. Besides, the inhibition at 2.5 µM in test [1] stood at 70%.
Regarding `CSCC[C@@H]1NC(=O)[C@H](C)NC(=O)[C@H](Cc2ccccc2)NC(=O)[C@H](Cc2ccccc2)NC(=O)[C@@H]2CCCN2C(=O)[C@H](Cc2c[nH]c3ccccc23)NC(=O)[C@H](CCSC)NC(=O)[C@H](CCCCN)NC(=O)[C@H](CCCNC(=N)N)NC(=O)[C@H](Cc2ccccc2)NC(=O)[C@H](C)NC(=O)[C@H](CCC(N)=O)NC(=O)[C@H](Cc2ccccc2)NC(=O)[C@H](C)NC(=O)[C@H](CCCNC(=N)N)NC1=O` [compound 50] (cyclo(RAFQAFRKMWPFFAM)), the inhibition at 2.5 µM in test [1] stood at 60%.
Regarding H-RDFQSFRKMWPFFAM-OH [compound 1], on human FOXP3 (FOXP3-6His), the “Binding to Foxp3 Ratio binding Peptide/p60 (fold change)” value is 1.0 fold change. Besides, the inhibition at 100 µM in test [1] (read-out: Foxp3-Runx1 Inhibition % inhibition (100 μM)) was 54.5%; in test [2] (read-out: Dimerization inhibition % inhibition (100 μM)), 59.7%.

These data come from patent US10654896B2, “FoxP3-binding peptides and uses thereof” (FUNDACIÓN PARA LA INVESTIGACIÓN MÉDICA APLICADA, priority 2016, dated 2020).
